{"source": "patent US20060234990A1", "about": "“Compositions of boswellic acids derived from Boswellia serrata gum resin, for treating lymphoproliferative and autoimmune conditions” (SAMI LABS LTD., priority 2000, published 2006)", "key": {"[1]": {"tested_on": "HL-60 cells", "test": "DNA synthesis ([3H]thymidine incorporation) in HL-60 cells", "assay_type": "cell-based", "settings": "Homo sapiens; cultured HL-60 cells incubated for 2 hours; read-out: 50% inhibitory activity on the incorporation of [3H]-thymidine into DNA", "text": "(§1) FIGS. 1, 2, and 3 show the inhibitory effects of compounds I-IV on the DNA, RNA and protein synthesis of HL-60 cells, respectively (in FIG. 1-3, lines 1, 2, 3 and 4 refer to the data of compounds I, II, III and IV, respectively). Tables 1 and 2 show the inhibitory effect of a “total organic acids” extract of the exudate of Boswellia serrata on DNA, RNA and protein synthesis or growth in HL-60 cells. […] The initial rates of incorporation of [^3H]-thymidine, [^3H]-uridine and [^3H]-leucine into trichloroacetic acid (TCA)-insoluble material were utilized to estimate the rates of DNA, RNA, and protein synthesis, respectively, in HL-60 cells. […] the inhibitory effects of compounds I-IV and the alcoholic extract on DNA. RNA and protein synthesis of HL-60 cells were in a dose-dependent manner. […] 0.9 and 0.6 μM, respectively, the incorporation of [3H]-uridine at concentrations of 7.1, 2.3. 2.2 and 0.5 μM, respectively, and the incorporation of [3H]-leucine into protein at concentrations of 6.3, 5.4, 5.1 and 4.1 μM, respectively, in cultured HL-60 cells incubated for 2 hours.\n(§2) Various concentrations of the Boswellia serrata extract, as indicated above, were added to 1 mL of HL-60 cells suspended in RPMI medium. [^3H]thymidine (50 μCi/μmol: […]), [^3H]uridine (55 μCi/μmol; 5 μL), [^3H]leucine (200 μCi/μmol: 10 μL), were added to the cell suspension and incubated at 37° C. for 120 min. Reactions were terminated by addition of 3 mL of cold PBS, and the rates of DNA. RNA, and protein synthesis were determined.\n[^3H]Thymidine (3 μL; 50 μCi/μmol), vehicle or various concentrations of BSE in vehicle were added to 1 mL of HL-60 cells (5×10^5 cells/mL) in culture, and the cultures were incubated at 37° C. for 120 min. Data are expressed as the mean±SE calculated from triplicate studies. Data in parentheses are the percent inhibition of [^3H]thymidine incorporation into the DNA of HL-60 cells."}, "[2]": {"tested_on": "HL-60 cells", "test": "RNA synthesis ([3H]uridine incorporation) in HL-60 cells", "assay_type": "cell-based", "settings": "Homo sapiens; cultured HL-60 cells incubated for 2 hours; read-out: 50% inhibitory activity on the incorporation of [3H]-uridine", "text": "as §1, §2"}, "[3]": {"tested_on": "HL-60 cells", "test": "Protein synthesis ([3H]leucine incorporation) in HL-60 cells", "assay_type": "cell-based", "settings": "Homo sapiens; cultured HL-60 cells incubated for 2 hours; read-out: 50% inhibitory activity on the incorporation of [3H]-leucine into protein", "text": "as §1, §2"}, "[4]": {"tested_on": "HL-60 cells", "test": "Cellular growth of HL-60 cells in culture", "assay_type": "cell-based", "settings": "Homo sapiens, HL-60, 96 h, 37° C., 4 days", "experimental": "(§3) The effect of compound IV on cellular growth of HL-60 cells was tested. […] In order to test whether this growth was the result of cell cytotoxicity, the effects of this compound on cell viability were examined after 4 days incubation using the trypan blue exclusion method. The cells viability at concentrations of 0, 1, 4, 16 μM were 97.0, 96.8, 96.5, or 96.7%, respectively.\nVarious concentrations of BSE, as indicated above, were added to the HL-60 cell cultures. These cultures were counted daily using a hemacytometer under a microscope with 10× magnification every 24 hours. Data are expressed as the mean=SE calculated from triplicate studies. Data in parentheses are the percent inhibition of cell growth."}, "[5]": {"test": "Cell viability of HL-60 cells, trypan blue exclusion method", "assay_type": "cell-based", "settings": "human, 4 days incubation", "experimental": "as §3"}, "[6]": {"tested_on": "HL-60 cells", "test": "Reversibility of DNA synthesis inhibition after preincubation and washing", "assay_type": "cell-based, human", "settings": "preincubated at 2 and 8 μM for 30 min at 37° C., washed with PBS", "experimental": "In this experiment HL-60 cells were preincubated with compound IV at 2 and 8 μM for 30 min at 37° C., washed with phosphate buffer saline and [3H]-thymidine was added to the culture. At desired times, the reactions were terminated and the rates of DNA synthesis were determined."}, "[7]": {"target": "T1, human leukocyte elastase (Homo sapiens, UniProt P08246)", "T1 sequence (P08246 30-267)": "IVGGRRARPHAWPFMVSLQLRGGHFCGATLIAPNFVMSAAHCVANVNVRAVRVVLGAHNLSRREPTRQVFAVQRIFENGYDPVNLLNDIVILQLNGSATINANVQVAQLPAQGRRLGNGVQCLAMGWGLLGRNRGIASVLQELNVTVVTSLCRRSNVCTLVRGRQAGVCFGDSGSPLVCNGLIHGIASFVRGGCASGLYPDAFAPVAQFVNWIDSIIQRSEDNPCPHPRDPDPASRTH", "settings": "in vitro; Safayhi et al (1997); cited from earlier work"}}, "data": [{"smiles": "CC(=O)OC1CCC2(C)C(CCC3C4(C)CCC5(C)CCC(C)C(C)C5C4=CCC32C)C1(C)C(=O)O", "note": "(stereo not drawn) [II, Acetyl-β-Boswellic Acid]", "values": [{"measurement": "IC50", "setting": "[1]", "result": 1.4, "unit": "µM"}, {"measurement": "IC50", "setting": "[2]", "result": 2.3, "unit": "µM"}, {"measurement": "IC50", "setting": "[3]", "result": 5.4, "unit": "µM"}]}, {"smiles": "CC(=O)OC1CCC2(C)C(CCC3C4(C)CCC5(C)CCC(C)C(C)C5C4=CC(=O)C32C)C1(C)C(=O)O", "note": "(stereo not drawn) [IV, Acetyl-11-keto-β-Boswellic Acid]", "values": [{"measurement": "IC50", "setting": "[1]", "result": 0.6, "unit": "µM"}, {"measurement": "IC50", "setting": "[2]", "result": 0.5, "unit": "µM"}, {"measurement": "IC50", "setting": "[3]", "result": 4.1, "unit": "µM"}, {"measurement": "inhibition at 1 µM", "setting": "[4]; 1 μM", "result": 54.5, "unit": "%"}, {"measurement": "inhibition at 4 µM", "setting": "[4]; 4 μM", "result": 71.8, "unit": "%"}, {"measurement": "inhibition at 16 µM", "setting": "[4]; 16 μM", "result": 98.6, "unit": "%"}, {"measurement": "viability at 4 days, 1 µM", "setting": "[5]; 1 μM", "result": 96.8, "unit": "%"}, {"measurement": "viability at 4 days, 4 µM", "setting": "[5]; 4 μM", "result": 96.5, "unit": "%"}, {"measurement": "viability at 4 days, 16 µM", "setting": "[5]; 16 μM", "result": 96.7, "unit": "%"}, {"measurement": "inhibitory action on DNA synthesis after washing", "setting": "[6]", "result": "irreversible"}, {"measurement": "IC50", "setting": "[7]", "result": "~15", "unit": "µM"}]}, {"smiles": "CC1CCC2(C)CCC3(C)C(=CC(=O)C4(C)C3CCC3C(C)(C(=O)O)C(O)CCC34C)C2C1C", "note": "(stereo not drawn) [III, 11-keto-β-Boswellic Acid]", "values": [{"measurement": "IC50", "setting": "[1]", "result": 0.9, "unit": "µM"}, {"measurement": "IC50", "setting": "[2]", "result": 2.2, "unit": "µM"}, {"measurement": "IC50", "setting": "[3]", "result": 5.1, "unit": "µM"}]}, {"smiles": "CC1CCC2(C)CCC3(C)C(=CCC4(C)C3CCC3C(C)(C(=O)O)C(O)CCC34C)C2C1C", "note": "(stereo not drawn) [I, β-Boswellic Acid]", "values": [{"measurement": "IC50", "setting": "[1]", "result": 3.7, "unit": "µM"}, {"measurement": "IC50", "setting": "[2]", "result": 7.1, "unit": "µM"}, {"measurement": "IC50", "setting": "[3]", "result": 6.3, "unit": "µM"}]}]}
